In patent publication US7671085B2, “Non-steroidal farnesoid X receptor modulators and methods for the use thereof” (The Salk Institute for Biological Studies, priority 2002, dated 2010):

Biological target: T1, FXR (Homo sapiens, UniProt Q96RI1)
T1 construct: using a full length FXR on a natural response element; expressed in transfected cells
T1 sequence (Q96RI1 1-486): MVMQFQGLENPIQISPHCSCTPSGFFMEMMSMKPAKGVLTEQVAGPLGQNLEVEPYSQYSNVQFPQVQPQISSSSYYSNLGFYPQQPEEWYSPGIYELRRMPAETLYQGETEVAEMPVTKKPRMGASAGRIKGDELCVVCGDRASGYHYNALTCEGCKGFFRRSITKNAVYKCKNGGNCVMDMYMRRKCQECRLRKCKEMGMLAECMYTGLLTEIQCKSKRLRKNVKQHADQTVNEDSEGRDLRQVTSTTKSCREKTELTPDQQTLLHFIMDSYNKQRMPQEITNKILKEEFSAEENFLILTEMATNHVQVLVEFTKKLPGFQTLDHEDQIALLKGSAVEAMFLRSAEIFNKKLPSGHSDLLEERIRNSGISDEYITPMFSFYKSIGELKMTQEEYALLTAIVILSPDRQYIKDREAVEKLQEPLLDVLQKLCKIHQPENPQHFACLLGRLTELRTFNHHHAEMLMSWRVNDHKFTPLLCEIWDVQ
Experiment: cell-based FXR transcription assay, FXR responsive promoter linked to luciferase reporter
Details: for RE^a / EC50: cell-based FXR reporter assay; for RE^a: footnote a not given; for FXR activation, in words: cell-based reporter assay, SAR discussion; for EC50: determined with Prism 3.0
From the text: In addition to ensuring that only cell permeable compounds were selected for further optimization, this approach allows for the detection of FXR activation in a natural system (i.e., correct folding of the protein and in the presence of a complete compliment of co-activators and co-repressors).
The feasibility of creating high throughput screens (HTS) for ORs was explored using FXR as a candidate orphan receptor (OR) with a known activator, chenodeoxycholic acid (CDCA) as a ligand. The screen is based on the co-transfection of a full-length receptor with the reporter vector containing a natural hormone response element under a minimal eukaryotic promoter. […] Using this 384-well format, the high throughput screening (HTS) approach to FXR as a candidate OR was employed. […] A central question in the feasibility studies is whether this library is suitable for screening for nuclear receptor ligands. Samples of this library were first reformatted into a 384-well format and then subjected to the FXR cell-based assays described above and assessed for FXR-mediated transcriptional activity. Cells were exposed to approximately 10 μM of sample for 18 hrs prior to washing and luciferase analysis.
EC50 values were determined with Prism 3.0 software via the activity of the subject compound in the previously described cell based assay.

SMILES	RE^a	FXR activation, in words	EC50 [nM]
CC(C)(C)OC(=O)C=Cc1ccc(CN(C(=O)C2CCCCC2)c2cccc(C=CC(=O)OC(C)(C)C)c2)cc1 [Compound 134]	1.06	marked decline in potency	
CC(C)(C)OC(=O)C=Cc1ccc(CN(C(=O)C2CCCCC2)c2cccc(C=CC(N)=O)c2)cc1 [Compound 135]	0.50	marked decline in potency	
COCC=Cc1cccc(N(Cc2ccc(C=CC(=O)OC(C)(C)C)cc2)C(=O)C2CCCCC2)c1 [Compound 136]	1.68		
CCOCC=Cc1cccc(N(Cc2ccc(C=CC(=O)OC(C)(C)C)cc2)C(=O)C2CCCCC2)c1 [Compound 137]	1.74		
CC(C)(C)OC(=O)C=Cc1ccc(CN(C(=O)C2CCCCC2)c2cccc(C=CCOc3ccccc3)c2)cc1 [Compound 138]	0.45		
COC(=O)CCc1cccc(N(Cc2ccc(/C=C/C(=O)OC(C)(C)C)cc2)C(=O)C2CCCCC2)c1 [Compound 139]	RE^a = 1.38	only a two-fold decrease in potency	
COC(=O)C=Cc1cccc(N(Cc2ccc(C=CC(=O)OC(C)(C)C)cc2)C(=O)C2CC2)c1 [Compound 140]	1.68		
COC(=O)C=Cc1cccc(N(Cc2ccc(C=CC(=O)OC(C)(C)C)cc2)C(=O)C2CCC2)c1 [Compound 141]	1.84	excellent activity	
COC(=O)C=Cc1cccc(N(Cc2ccc(C=CC(=O)OC(C)(C)C)cc2)C(=O)C2CCCC2)c1 [Compound 142]	2.16	excellent activity	
COC(=O)/C=C/c1cccc(N(Cc2ccc(/C=C/C(=O)OC(C)(C)C)cc2)C(=O)c2ccccc2)c1 [Compound 143]	1.96		
COC(=O)/C=C/c1cccc(N(Cc2ccc(/C=C/C(=O)OC(C)(C)C)cc2)C(=O)c2ccco2)c1 [Compound 144]	1.93		
COC(=O)/C=C/c1cccc(N(Cc2ccc(/C=C/C(=O)OC(C)(C)C)cc2)C(=O)NC(C)C)c1 [Compound 145]	1.96		
COC(=O)C=Cc1cccc(N(Cc2ccc(C=CC(=O)OC(C)(C)C)cc2)C(=O)NCc2ccccc2)c1 [Compound 146]	0.27	only marginal efficacy	
COC(=O)C=Cc1cccc(N(C)C(=O)C2CCCCC2)c1 [Compound 147]	0.09		
COC(=O)C=Cc1cccc(N(Cc2ccc(C(C)(C)C)cc2)C(=O)C2CCCCC2)c1 [Compound 148]	0.15		
COC(=O)C=Cc1ccc(CN(C(=O)C2CCCCC2)c2cccc(C=CC(=O)OC)c2)cc1 [Compound 150]	0.87		
CCOC(=O)C=Cc1ccc(CN(C(=O)C2CCCCC2)c2cccc(C=CC(=O)OC)c2)cc1 [Compound 151]	1.14		
COC(=O)C=Cc1cccc(N(Cc2ccc(C=CC(=O)OC(C)C)cc2)C(=O)C2CCCCC2)c1 [Compound 152]	1.97		
COC(=O)C=Cc1cccc(N(Cc2ccc(C=CC(=O)OCc3ccccc3)cc2)C(=O)C2CCCCC2)c1 [Compound 153]	0.23		
COC(=O)C=Cc1cccc(N(Cc2ccc(C=CC(=O)N(C)C)cc2)C(=O)C2CCCCC2)c1 [Compound 154]	0.66		
COC(=O)C=Cc1cccc(N(Cc2ccc(C=CC(=O)NC(C)(C)C)cc2)C(=O)C2CCCCC2)c1 [Compound 155]	1.65		> 1000
COCC=Cc1ccc(CN(C(=O)C2CCCCC2)c2cccc(C=CC(=O)OC)c2)cc1 [Compound 156]	1.63		
CCOCC=Cc1ccc(CN(C(=O)C2CCCCC2)c2cccc(C=CC(=O)OC)c2)cc1 [Compound 157]	2.06		
COC(=O)C=Cc1cccc(N(Cc2ccc(C=CCOc3ccccc3)cc2)C(=O)C2CCCCC2)c1 [Compound 158]	0.64	only micromolar activity	

SMILES	RE^a	FXR activation, in words	EC50 [nM]
COC(=O)C=Cc1cccc(N(Cc2ccc(CCC(=O)OC(C)(C)C)cc2)C(=O)C2CCCCC2)c1 [Compound 159]	1.56		
CC(C)(C)OC(=O)/C=C/c1cccc(N(Cc2ccc(CCC(=O)OC(C)(C)C)cc2)C(=O)C2CCCCC2)c1 [Compound 160]	0.64		
COC(=O)C=Cc1cccc(N(Cc2ccc(C=CC(=O)OC(C)(C)C)cc2O)C(=O)C2CCCCC2)c1 [Compound 161]	0.12		
COC(=O)C=Cc1cccc(N(Cc2ccc(C=CC(=O)OC(C)(C)C)cc2OC)C(=O)C2CCCCC2)c1 [Compound 162]	0.14		
COC(=O)C=Cc1cccc(N(Cc2ccc(C=CC(=O)OC(C)(C)C)cc2OCc2ccccc2)C(=O)C2CCCCC2)c1 [Compound 163]	0.38		
COC(=O)C=Cc1cccc(N(Cc2ccc(C=CC(=O)OC(C)(C)C)cc2OC(C)=O)C(=O)C2CCCCC2)c1 [Compound 164]	0.16		
COC(=O)C=Cc1cccc(N(Cc2ccc(C=CC(=O)OC(C)(C)C)cc2OC(=O)c2ccccc2)C(=O)C2CCCCC2)c1 [Compound 165]	0.16		
COC(=O)C=Cc1cccc(N(Cc2ccc(C=CC(=O)OC(C)(C)C)cc2OS(C)(=O)=O)C(=O)C2CCCCC2)c1 [Compound 166]	0.18		
CCOC(=O)COc1cc(C=CC(=O)OC(C)(C)C)ccc1CN(C(=O)C1CCCCC1)c1cccc(C=CC(=O)OC)c1 [Compound 167]	0.18		
COC(=O)/C=C/c1cccc(N(Cc2ccc(/C=C/c3ccc(C)cc3)cc2)C(=O)C2CCCCC2)c1 [Compound 174]	0.83	among the least active	
COC(=O)/C=C/c1cccc(N(Cc2ccc(/C=C/c3ccc(C)cc3)cc2)C(=O)C(C)C)c1 [Compound 175]	0.37		1410
COC(=O)/C=C/c1cccc(N(Cc2ccc(/C=C/c3ccc(C)cc3)cc2)C(=O)NC(C)C)c1 [Compound 176]	0.10		3570
COC(=O)/C=C/c1cccc(N(Cc2ccc(/C=C/c3c(Cl)cccc3Cl)cc2)C(=O)C2CCCCC2)c1 [Compound 177]	0.12	excellent activity	
COC(=O)/C=C/c1cccc(N(Cc2ccc(/C=C/c3c(Cl)cccc3Cl)cc2)C(=O)C(C)C)c1 [Compound 178]	0.14		
COC(=O)/C=C/c1cccc(N(Cc2ccc(/C=C/c3c(Cl)cccc3Cl)cc2)C(=O)NC(C)C)c1 [Compound 179]	0.15		216
COC(=O)C=Cc1cccc(N(Cc2ccc(C=Cc3cccc(Cl)c3)cc2)C(=O)C2CCCCC2)c1 [Compound 180]	1.41	excellent activity	
COC(=O)/C=C/c1cccc(N(Cc2ccc(/C=C/c3cccc(Cl)c3)cc2)C(=O)C(C)C)c1 [Compound 181]	1.09	excellent activity	164
COC(=O)/C=C/c1cccc(N(Cc2ccc(/C=C/c3cccc(Cl)c3)cc2)C(=O)NC(C)C)c1 [Compound 182]	0.59		
COC(=O)C=Cc1cccc(N(Cc2ccc(C=Cc3cc(C(F)(F)F)cc(C(F)(F)F)c3)cc2)C(=O)C2CCCCC2)c1 [Compound 183]	0.15		1470
COC(=O)/C=C/c1cccc(N(Cc2ccc(/C=C/c3cc(C(F)(F)F)cc(C(F)(F)F)c3)cc2)C(=O)C(C)C)c1 [Compound 184]	0.13		
COC(=O)/C=C/c1cccc(N(Cc2ccc(/C=C/c3cc(C(F)(F)F)cc(C(F)(F)F)c3)cc2)C(=O)NC(C)C)c1 [Compound 185]	0.13		
COC(=O)C=Cc1cccc(N(Cc2ccc(C=Cc3cccc(C(F)(F)F)c3)cc2)C(=O)C2CCCCC2)c1 [Compound 186]	0.35		937
COC(=O)/C=C/c1cccc(N(Cc2ccc(/C=C/c3cccc(C(F)(F)F)c3)cc2)C(=O)C(C)C)c1 [Compound 187]	0.70		
